Source: PubChem BioAssay (NCI)
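Compound exposure: 48 hours, 5 concentrations, 96-well plates. TGI is the concentration that stops growth completely.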

Tests used:
Experiment in all cases: NCI tumour cell line growth inhibition, 48 h
[1] = tested on: SF-268 CNS
[2] = tested on: SNB-19 CNS
[3] = tested on: A549 NSCLC
[4] = tested on: HCT-15 colon
[5] = tested on: ACHN renal
[6] = tested on: HS 578T breast
[7] = tested on: SK-OV-3 ovarian
[8] = tested on: HT29 colon
[9] = tested on: DU-145 prostate
[10] = tested on: K-562 leukemia
[11] = tested on: EKVX NSCLC
[12] = tested on: A498 renal
[13] = tested on: SNB-75 CNS
[14] = tested on: COLO 205 colon
[15] = tested on: HCC-2998 colon
[16] = tested on: MDA-MB-231 breast
[17] = tested on: M14 melanoma
[18] = tested on: OVCAR-8 ovarian
[19] = tested on: T-47D breast
[20] = tested on: U251 CNS
[21] = tested on: NCI-H226 lung
[22] = tested on: SK-MEL-5 melanoma
[23] = tested on: SF-295 CNS
[24] = tested on: UO-31 renal
[25] = tested on: SF-539 CNS
[26] = tested on: MOLT-4 leukemia
[27] = tested on: MCF7 breast
[28] = tested on: PC-3 prostate
[29] = tested on: OVCAR-5 ovarian
[30] = tested on: HOP-92 NSCLC
[31] = tested on: HL-60(TB) leukemia
[32] = tested on: HCT-116 colon
[33] = tested on: SN12C renal
[34] = tested on: OVCAR-3 ovarian
[35] = tested on: CAKI-1 renal
[36] = tested on: NCI-H23 lung
[37] = tested on: TK-10 renal
[38] = tested on: NCI-H522 lung
[39] = tested on: LOX IMVI melanoma
[40] = tested on: NCI-H460 lung
[41] = tested on: RXF 393 renal
[42] = tested on: MDA-MB-435
[43] = tested on: UACC-257 melanoma
[44] = tested on: NCI/ADR-RES ovarian
[45] = tested on: 786-0 renal
[46] = tested on: IGROV1 ovarian
[47] = tested on: OVCAR-4 ovarian
[48] = tested on: KM12 colon
[49] = tested on: SR leukemia
[50] = tested on: CCRF-CEM leukemia
[51] = tested on: SK-MEL-28 melanoma
[52] = tested on: HOP-62 NSCLC
[53] = tested on: RPMI-8226 leukemia
[54] = tested on: BT-549 breast
[55] = tested on: UACC-62 melanoma
[56] = tested on: MDA-N
[57] = tested on: MALME-3M melanoma
[58] = tested on: SW-620 colon
[59] = tested on: SK-MEL-2 melanoma

## Nc1cccc(C2CCCc3c2[nH]c2ccccc32)c1 (configuration not stated)
[1]
  TGI: 56.4 µM
[2]
  TGI: 72.7 µM
[3]
  TGI: 47.7 µM
[4]
  TGI: 40.5 µM
[5]
  TGI: 76.8 µM
[6]
  TGI: 43.7 µM
[7]
  TGI: 70.4 µM
[8]
  TGI: 33.4 µM
[9]
  TGI: > 100 µM
[10]
  TGI: 48.7 µM
[11]
  TGI: 67.5 µM
[12]
  TGI: 28.9 µM
[13]
  TGI: 36.1 µM
[14]
  TGI: 43.6 µM
[15]
  TGI: 61 µM
[16]
  TGI: 37 µM
[17]
  TGI: 62.4 µM
[18]
  TGI: 34.8 µM
[19]
  TGI: 54.7 µM
[20]
  TGI: 28.9 µM
[21]
  TGI: 47.9 µM
[22]
  TGI: 33.1 µM
[23]
  TGI: 64.5 µM
[24]
  TGI: > 100 µM
[25]
  TGI: 40.6 µM
[26]
  TGI: 54.1 µM
[27]
  TGI: 54.7 µM
[28]
  TGI: 53.9 µM
[29]
  TGI: 45.8 µM
[30]
  TGI: 42.7 µM
[31]
  TGI: 43 µM
[32]
  TGI: 34 µM
[33]
  TGI: 32.7 µM
[34]
  TGI: > 100 µM
[35]
  TGI: 69.2 µM
[36]
  TGI: 46.4 µM
[37]
  TGI: > 100 µM
[38]
  TGI: 34.1 µM
[39]
  TGI: 25.4 µM
[40]
  TGI: 73.6 µM
[41]
  TGI: 39.3 µM
[42]
  TGI: 41.1 µM
[43]
  TGI: 69.1 µM
[44]
  TGI: 38.8 µM
[45]
  TGI: 41.5 µM
[46]
  TGI: 39.8 µM
[47]
  TGI: > 100 µM
[48]
  TGI: 49.8 µM
[49]
  TGI: 31.4 µM
[50]
  TGI: 57 µM
[51]
  TGI: > 100 µM
[52]
  TGI: > 100 µM
[53]
  TGI: 56.6 µM
[54]
  TGI: 41.9 µM
[55]
  TGI: 31.1 µM
[56]
  TGI: 37.4 µM
[57]
  TGI: 48.3 µM
[58]
  TGI: 42.6 µM
[59]
  TGI: 37.8 µM

## C=C1c2nc3ccccc3n2C=C(c2ccc(OC)cc2)N1c1ccccc1
[1]
  TGI: > 100 µM
[2]
  TGI: 48.3 µM
[3]
  TGI: > 100 µM
[4]
  TGI: > 56.8 µM
[5]
  TGI: > 100 µM
[6]
  TGI: > 96.6 µM
[7]
  TGI: > 100 µM
[8]
  TGI: 26.7 µM
[9]
  TGI: > 100 µM
[10]
  TGI: > 100 µM
[11]
  TGI: > 100 µM
[12]
  TGI: > 100 µM
[13]
  TGI: 58.3 µM
[14]
  TGI: > 70.9 µM
[15]
  TGI: 39.8 µM
[16]
  TGI: > 100 µM
[17]
  TGI: > 60.4 µM
[18]
  TGI: > 69.3 µM
[19]
  TGI: 98.3 µM
[20]
  TGI: > 100 µM
[21]
  TGI: 22.6 µM
[22]
  TGI: 42.2 µM
[23]
  TGI: > 55.6 µM
[24]
  TGI: > 91.3 µM
[25]
  TGI: > 91.2 µM
[26]
  TGI: > 55.9 µM
[27]
  TGI: > 63.5 µM
[28]
  TGI: > 100 µM
[29]
  TGI: > 100 µM
[30]
  TGI: > 100 µM
[31]
  TGI: 7.93 µM
[32]
  TGI: > 100 µM
[33]
  TGI: > 100 µM
[34]
  TGI: 98 µM
[35]
  TGI: > 100 µM
[36]
  TGI: 98.5 µM
[37]
  TGI: > 100 µM
[38]
  TGI: 27.2 µM
[39]
  TGI: > 100 µM
[40]
  TGI: > 34.5 µM
[41]
  TGI: > 76.1 µM
[42]
  TGI: 4.83 µM
[43]
  TGI: > 100 µM
[44]
  TGI: 9.64 µM
[45]
  TGI: > 100 µM
[46]
  TGI: > 100 µM
[47]
  TGI: > 100 µM
[48]
  TGI: > 47.2 µM
[49]
  TGI: > 24.5 µM
[50]
  TGI: > 57.9 µM
[51]
  TGI: > 96.7 µM
[52]
  TGI: > 100 µM
[53]
  TGI: 45.1 µM
[54]
  TGI: 71 µM
[55]
  TGI: > 57.6 µM
[56]
  TGI: 8.56 µM
[57]
  TGI: 49.8 µM
[58]
  TGI: > 65.4 µM
[59]
  TGI: 42.4 µM

## COc1ccc(C(CC(C)=O)c2c(O)c3ccccc3oc2=O)cc1OC (configuration not stated)
[1]
  TGI: > 100 µM
[2]
  TGI: > 100 µM
[3]
  TGI: > 100 µM
[4]
  TGI: > 100 µM
[5]
  TGI: > 100 µM
[6]
  TGI: > 100 µM
[7]
  TGI: > 100 µM
[8]
  TGI: > 100 µM
[9]
  TGI: > 100 µM
[10]
  TGI: > 100 µM
[11]
  TGI: > 100 µM
[12]
  TGI: > 100 µM
[13]
  TGI: > 100 µM
[14]
  TGI: > 100 µM
[15]
  TGI: > 100 µM
[16]
  TGI: > 100 µM
[17]
  TGI: > 100 µM
[18]
  TGI: > 100 µM
[19]
  TGI: > 100 µM
[20]
  TGI: > 100 µM
[21]
  TGI: > 100 µM
[22]
  TGI: > 100 µM
[23]
  TGI: > 100 µM
[24]
  TGI: > 100 µM
[25]
  TGI: > 100 µM
[26]
  TGI: > 100 µM
[27]
  TGI: > 100 µM
[28]
  TGI: > 100 µM
[29]
  TGI: > 100 µM
[30]
  TGI: > 100 µM
[31]
  TGI: > 100 µM
[32]
  TGI: > 100 µM
[33]
  TGI: > 100 µM
[34]
  TGI: > 100 µM
[35]
  TGI: > 100 µM
[36]
  TGI: > 100 µM
[37]
  TGI: > 100 µM
[38]
  TGI: > 100 µM
[39]
  TGI: > 100 µM
[40]
  TGI: > 100 µM
[41]
  TGI: > 100 µM
[42]
  TGI: > 100 µM
[43]
  TGI: > 100 µM
[44]
  TGI: > 100 µM
[45]
  TGI: > 100 µM
[46]
  TGI: > 100 µM
[47]
  TGI: > 100 µM
[48]
  TGI: > 100 µM
[49]
  TGI: > 100 µM
[50]
  TGI: > 100 µM
[51]
  TGI: > 100 µM
[52]
  TGI: > 100 µM
[53]
  TGI: > 100 µM
[54]
  TGI: > 100 µM
[55]
  TGI: > 100 µM
[56]
  TGI: > 100 µM
[57]
  TGI: > 100 µM
[58]
  TGI: > 100 µM
[59]
  TGI: > 100 µM
